Assay results as given in ChEMBL document CHEMBL1129817, “Novel water-soluble analogues retaining potent antitumor activity of RA-VII, a cyclic hexapeptide from Rubia plants” (Bioorg Med Chem Lett, 1997).
≈ marks a conversion by molar mass, not a printed value. Where “and” joins values, the source holds several entries; their conditions need not be identical. Equal values may be shown once.

How the values were obtained:
KB = test: Compound was evaluated for cytotoxicity against human epidermoid carcinoma of nasopharynx (KB) cells; format: functional, cell-based
P388 [1] = test: Percentage of the median survival time of P388 leukemic mice (T) at intraperitoneal administration of 0.4 mg/kg dose to that of controls (C); format: functional, Mus musculus
P388 [2] = test: Percentage of the median survival time of P388 leukemic mice (T) at intraperitoneal administration of 1.6 mg/kg dose to that of controls (C); format: functional, Mus musculus
P388 [3] = test: Percentage of the median survival time of P388 leukemic mice (T) at intraperitoneal administration of 6.25 mg/kg dose to that of controls (C); format: functional, Mus musculus
[4] = tested on: KATO III stomach cancer cell line; test: Compound was evaluated for cytotoxicity against KATO-III gastric carcinoma cells; format: functional, cell-based; conditions: Homo sapiens
L1210 = test: Compound was evaluated for cytotoxicity against L1210 leukemia cells; format: functional, cell-based; conditions: Mus musculus
B16 [5] = test: Compound was evaluated for percent tumor volume against B16 melanoma in mice (T) at 3.13 mg/kg intravenous administration after 11 days ot that of control (C); format: functional, Mus musculus
B16 [6] = test: Compound was evaluated for percent tumor volume against B16 melanoma in mice (T) at 3.13 mg/kg intravenous administration after 13 days ot that of control (C); format: functional, Mus musculus
B16 [7] = test: Compound was evaluated for percent tumor volume against B16 melanoma in mice (T) at 3.13 mg/kg intravenous administration after 8 days ot that of control (C); format: functional, Mus musculus
B16 [8] = test: Compound was evaluated for percent tumor volume against B16 melanoma in mice (T) at 6.25 mg/kg intravenous administration after 11 days ot that of control (C); format: functional, Mus musculus
B16 [9] = test: Compound was evaluated for percent tumor volume against B16 melanoma in mice (T) at 6.25 mg/kg intravenous administration after 8 days ot that of control (C); format: functional, Mus musculus
Colon 26 [10] = test: Compound was evaluated for percent tumor volume against colon 26 cells in mice (T) at a dose of 1.6 mg/kg intravenous administration after 10 days ot that of control (C); format: functional, Mus musculus
Colon 26 [11] = test: Compound was evaluated for percent tumor volume against colon 26 cells in mice (T) at a dose of 1.6 mg/kg intravenous administration after 12 days ot that of control (C); format: functional, Mus musculus
Colon 26 [12] = test: Compound was evaluated for percent tumor volume against colon 26 cells in mice (T) at a dose of 1.6 mg/kg intravenous administration after 8 days ot that of control (C); format: functional, Mus musculus
Colon 26 [13] = test: Compound was evaluated for percent tumor volume against colon 26 cells in mice (T) at a dose of 6.25 mg/kg intravenous administration after 12 days ot that of control (C), (Number of mice surviving / number of mice tested); T/C, 7/8; format: functional, Mus musculus
Colon 26 [14] = test: Compound was evaluated for percent tumor volume against colon 26 cells in mice (T) at a dose of 6.25 mg/kg intravenous administration after 8 days ot that of control (C); format: functional, Mus musculus
Colon 26 [15] = test: Compound was evaluated for percent tumor volume against colon 26 cells in mice (T) at a dose of 3.13 mg/kg intravenous administration after 10 days ot that of control (C), (Number of mice surviving / number of mice tested; T/C), 7/8; format: functional, Mus musculus
Colon 26 [16] = test: Compound was evaluated for percent tumor volume against colon 26 cells in mice (T) at a dose of 3.13 mg/kg intravenous administration after 12 days ot that of control (C), (Number of mice surviving / number of mice tested); T/C, 6/8; format: functional, Mus musculus
Colon 26 [17] = test: Compound was evaluated for percent tumor volume against colon 26 cells in mice (T) at a dose of 3.13 mg/kg intravenous administration after 8 days ot that of control (C); format: functional, Mus musculus
Colon 26 [18] = test: Compound was evaluated for percent tumor volume against colon 26 cells in mice (T) at a dose of 6.25 mg/kg intravenous administration after 10 days ot that of control (C); format: functional, Mus musculus
P388 [19] = test: Percentage of the median survival time of P388 leukemic mice (T) at intraperitoneal administration of 6.25 mg/kg dose to that of controls (C); Toxic; format: functional, organism-based; parameters: dose 6.25 mg/kg; conditions: Mus musculus

SMILES: CCN(CC)CCOc1ccc2cc1Oc1cccc(c1)C[C@H]1C(=O)N(C)[C@@H](C2)C(=O)N[C@H](C)C(=O)N[C@@H](C)C(=O)N(C)[C@@H](Cc2ccc(OC)cc2)C(=O)N[C@@H](C)C(=O)N1C
- IC50 (KB): 10 ng/mL (≈ 11.7 nM)

SMILES: COc1ccc(C[C@H]2C(=O)N[C@@H](C)C(=O)N(C)[C@H]3Cc4cccc(c4)Oc4cc(ccc4OCCN(Cc4ccccc4)Cc4ccccc4)C[C@@H](C(=O)N[C@H](C)C(=O)N[C@@H](C)C(=O)N2C)N(C)C3=O)cc1 [listing 1 of 2 here]
- IC50 (KB): 59 ng/mL (≈ 60.2 nM)

SMILES: COc1ccc(C[C@H]2C(=O)N[C@@H](C)C(=O)N(C)[C@H]3Cc4cccc(c4)Oc4cc(ccc4OCCN4CCCCC4)C[C@@H](C(=O)N[C@H](C)C(=O)N[C@@H](C)C(=O)N2C)N(C)C3=O)cc1
- T/C (P388 [1]): 115%
- T/C (P388 [2]): 123%
- T/C (P388 [3]): 127%

SMILES: COc1ccc(C[C@H]2C(=O)N[C@@H](C)C(=O)N(C)[C@H]3Cc4cccc(c4)Oc4cc(ccc4OCCN(Cc4ccccc4)Cc4ccccc4)C[C@@H](C(=O)N[C@H](C)C(=O)N[C@@H](C)C(=O)N2C)N(C)C3=O)cc1 [listing 2 of 2 here]
- Activity (P388 [1]): 105%
- Activity (P388 [2]): 119%
- Activity (P388 [3]): 134%

SMILES: COc1ccc(C[C@H]2C(=O)N[C@@H](C)C(=O)N(C)[C@H]3Cc4cccc(c4)Oc4cc(ccc4OCCN4CCCCCC4)C[C@@H](C(=O)N[C@H](C)C(=O)N[C@@H](C)C(=O)N2C)N(C)C3=O)cc1 [listing 1 of 2 here]
- T/C (P388 [1]): 112%
- T/C (P388 [2]): 123%
- T/C (P388 [3]): 137%

SMILES: COc1ccc(C[C@H]2C(=O)N[C@@H](C)C(=O)N(C)[C@H]3Cc4cccc(c4)Oc4cc(ccc4OC)C[C@@H](C(=O)N[C@H](C)C(=O)N[C@@H](C)C(=O)N2C)N(C)C3=O)cc1
- IC50 [4]: 2.9 ng/mL (≈ 3.76 nM)
- IC50 (L1210): 1.2 ng/mL (≈ 1.56 nM)
- IC50 (KB): 2.3 ng/mL (≈ 2.98 nM)

SMILES: COc1ccc(C[C@H]2C(=O)N[C@@H](C)C(=O)N(C)[C@H]3Cc4cccc(c4)Oc4cc(ccc4OCCN(C)C)C[C@@H](C(=O)N[C@H](C)C(=O)N[C@@H](C)C(=O)N2C)N(C)C3=O)cc1
- T/C (B16 [5]): 67.9%
- T/C (B16 [6]): 140.5%
- T/C (B16 [7]): 77.2%
- T/C (B16 [8]): 40.8%
- T/C (B16 [9]): 57% and 40.8%
- T/C (Colon 26 [10]): 76.7%
- T/C (Colon 26 [11]): 102.5%
- T/C (Colon 26 [12]): 84.1%
- T/C (Colon 26 [13]): 125.5%
- T/C (Colon 26 [14]): 48.1%
- T/C (Colon 26 [15]): 55.8%
- T/C (Colon 26 [16]): 101.5%
- T/C (Colon 26 [17]): 54.4%
- T/C (Colon 26 [18]): 70%
- T/C (P388 [1]): 127%
- T/C (P388 [2]): 145%
- T/C (P388 [3]): 153%

SMILES: COc1ccc(C[C@H]2C(=O)N[C@H](C)C(=O)N(C)[C@H]3Cc4cccc(c4)Oc4cc(ccc4OC)C[C@@H](C(=O)N[C@H](C)C(=O)N[C@@H](C)C(=O)N2C)N(C)C3=O)cc1
- T/C (P388 [19]): Toxic

SMILES: COc1ccc(C[C@H]2C(=O)N[C@@H](C)C(=O)N(C)[C@H]3Cc4cccc(c4)Oc4cc(ccc4OCCN4CCCCCC4)C[C@@H](C(=O)N[C@H](C)C(=O)N[C@@H](C)C(=O)N2C)N(C)C3=O)cc1 [listing 2 of 2 here]
- IC50 (KB): 7.6 ng/mL (≈ 8.62 nM)

SMILES: COc1ccc(C[C@H]2C(=O)N[C@@H](C)C(=O)N(C)[C@H]3Cc4cccc(c4)Oc4cc(ccc4OCCN4CCCC4)C[C@@H](C(=O)N[C@H](C)C(=O)N[C@@H](C)C(=O)N2C)N(C)C3=O)cc1
- IC50 (KB): 19 ng/mL (≈ 22.2 nM)
